Measurements as given in article PMC9027532, “Preclinical Pharmacokinetic Studies of a Novel Diuretic Inhibiting Urea Transporters” (Molecules, 2022).
“Also recorded” adds a separate entry of the source.

Experiments:
[1] = Pharmacokinetic study in rats (plasma, LC-MS/MS, NCA); conditions: for concentration at 0.083 h / concentration at 0.167 h / concentration at 0.25 h / concentration at 0.5 h / concentration at 1 h / concentration at 2 h / concentration at 4 h / concentration at 6 h / concentration at 8 h / concentration at 12 h / concentration at 24 h: Mean plasma concentration
UT-B = tested on: UT-B; set-up: method as in PMID 34601246; conditions: mice; read-out: inhibitory effect on UT-B; cited from earlier work
[2] = male, Sprague-Dawley, rat, plasma, iv, 1 mg/kg
[3] = male, Sprague-Dawley, rat, plasma, po, 25 mg/kg
[4] = male, Sprague-Dawley, rat, plasma, po, 25 mg/kg, rats, single p.o. 25 mg/kg
[5] = male, Sprague-Dawley, rat, plasma, po, 50 mg/kg
[6] = male, Sprague-Dawley, rat, plasma, po, 50 mg/kg, rats, single p.o. 50 mg/kg
[7] = male, Sprague-Dawley, rat, plasma, po, 100 mg/kg
[8] = male, Sprague-Dawley, rat, plasma, po, 100 mg/kg, rats, multiple p.o. 100 mg/kg, twice per day for 7 days
[9] = male, Sprague-Dawley, rat, plasma, po, 100 mg/kg, rats, single p.o. 100 mg/kg
[10] = male, Sprague-Dawley, rat, plasma, po, 100 mg/kg, rats, multiple p.o. 100 mg/kg

Protocol: Blood samples were collected via orbital venous plexus into tubes with K2–EDTA on the ice at 0.083, 0.167, 0.25, 0.5, 1, 2, 4, 6, 8, 12, and 24 h. […] Blood was collected at 0.033, 0.083, 0.25, 0.5, 1, 2, 3, 4, 6, 12, and 24 h. Plasma was obtained by centrifugation at 3000 rpm for 10 min at 4 °C. […] The plasma and urine samples were stored at −80 °C until analysis. The PK parameters were calculated by DAS 3.2.8 software (Beijing, China) using the noncompartmental analysis (NCA) model. The oral bioavailability (F) was calculated by F = (AUCp.o. × Dosei.v.)/(AUCi.v. × Dosep.o.).

## CC(=O)Nc1ccc(NC(=O)c2ccc(C(C)=O)o2)cc1 [Compound 25a, N-(4-acetamidophenyl)-5-acetylfuran-2-carboxamide]
[1]; [2]
  AUC(0-inf): […]
  AUC(0-t): […]
  C0: […]
[1]; male, Sprague-Dawley, rat, plasma, iv, 1 mg/kg, rats, single i.v. 1 mg/kg
  MRT: […]
[1]; male, Sprague-Dawley, rat, plasma, iv, 1 mg/kg, t1/2, rats, single i.v. 1 mg/kg
  half-life: […]
[1]; [3]
  AUC(0-inf): […]
  AUC(0-t): […]
[1]; [4]
  CL/F: […]
  Cmax: […]
  MRT: […]
  concentration at 0.083 h: […]
  concentration at 0.167 h: […]
  concentration at 0.25 h: […]
  concentration at 0.5 h: […]
  concentration at 1 h: […]
  concentration at 2 h: […]
  concentration at 4 h: […]
  concentration at 6 h: […]
  concentration at 8 h: […]
  concentration at 12 h: […]
  concentration at 24 h: […]
[1]; male, Sprague-Dawley, rat, plasma, po, 25 mg/kg, F (oral bioavailability), rats, single p.o. 25 mg/kg
  bioavailability: […]
[1]; male, Sprague-Dawley, rat, plasma, po, 25 mg/kg, t1/2, rats, single p.o. 25 mg/kg
  half-life: […]
[1]; male, Sprague-Dawley, rat, plasma, po, 25 mg/kg, tmax, rats, single p.o. 25 mg/kg
  Tmax: […]
[1]; [5]
  AUC(0-inf): […]
  AUC(0-t): […]
[1]; [6]
  CL/F: […]
  Cmax: […]
  concentration at 0.083 h: […]
  concentration at 0.167 h: […]
  concentration at 0.25 h: […]
  concentration at 0.5 h: […]
  concentration at 1 h: […]
  concentration at 2 h: […]
  concentration at 4 h: […]
  concentration at 6 h: […]
  concentration at 8 h: […]
  concentration at 12 h: […]
  concentration at 24 h: […]
[1]; male, Sprague-Dawley, rat, plasma, po, 50 mg/kg, F (oral bioavailability), rats, single p.o. 50 mg/kg
  bioavailability: […]
[1]; male, Sprague-Dawley, rat, plasma, po, 50 mg/kg, t1/2, rats, single p.o. 50 mg/kg
  half-life: […]
[1]; male, Sprague-Dawley, rat, plasma, po, 50 mg/kg, tmax, rats, single p.o. 50 mg/kg
  Tmax: […]
[1]; [7]
  AUC(0-inf): […]
  AUC(0-t): […]
[1]; [8]
  CL/F: […]
  Cmax: […]
  MRT: […]
[1]; [9]
  CL/F: […]
  Cmax: […]
  MRT: […]
  concentration at 0.083 h: […]
  concentration at 0.167 h: […]
  concentration at 0.25 h: […]
  concentration at 0.5 h: […]
  concentration at 1 h: […]
  concentration at 2 h: […]
  concentration at 4 h: […]
  concentration at 6 h: […]
  concentration at 8 h: […]
  concentration at 12 h: […]
  concentration at 24 h: […]
[1]; male, Sprague-Dawley, rat, plasma, po, 100 mg/kg, F (oral bioavailability), rats, multiple p.o. 100 mg/kg, twice per day for 7 days
  bioavailability: […]
[1]; male, Sprague-Dawley, rat, plasma, po, 100 mg/kg, F (oral bioavailability), rats, single p.o. 100 mg/kg
  bioavailability: […]
[1]; [10]
  concentration at 0.083 h: […]
  concentration at 0.167 h: […]
  concentration at 0.25 h: […]
  concentration at 0.5 h: […]
  concentration at 1 h: […]
  concentration at 2 h: […]
  concentration at 4 h: […]
  concentration at 6 h: […]
  concentration at 8 h: […]
  concentration at 12 h: […]
  concentration at 24 h: […]
[1]; male, Sprague-Dawley, rat, plasma, po, 100 mg/kg, half-life, rats, single oral doses 25, 50, 100 mg/kg
  half-life: […]
[1]; male, Sprague-Dawley, rat, plasma, po, 100 mg/kg, t1/2, rats, multiple p.o. 100 mg/kg, twice per day for 7 days
  half-life: […]
[1]; male, Sprague-Dawley, rat, plasma, po, 100 mg/kg, tmax, rats, multiple p.o. 100 mg/kg, twice per day for 7 days
  Tmax at 7 days: […]
[1]; male, Sprague-Dawley, rat, plasma, po, 100 mg/kg, tmax, rats, single p.o. 100 mg/kg
  Tmax: […]
[1]; male, Sprague-Dawley, rat, plasma, po, oral bioavailability, SD rats, oral administration, overall
  bioavailability: […]
[1]; rats, after intravenous injection
  time of second plasma peak concentration: […]
[1]; rats, after oral administration
  time to reach maximum plasma concentration (Cmax): […]
[1]; rats, after oral dosing
  time of second plasma peak concentration: […]
[1]; rats, multiple p.o. 100 mg/kg, twice per day for 7 days
  V/F: […]
[1]; rats, oral
  bioavailability of 25a relative to lead compound 1H: approximately fourfold; also recorded: approximately four times higher
[1]; rats, single i.v. 1 mg/kg
  V (V/F row): […]
[1]; rats, single p.o. 25 mg/kg
  V/F: […]
[1]; rats, single p.o. 50 mg/kg
  V/F: […]
[1]; rats, single p.o. 100 mg/kg
  AUC0–∞: […]
  V/F: […]
  t1/2: […]
[1]; read-out: CL (CL/F row), rats, single i.v. 1 mg/kg
  clearance: […]
UT-B
  IC50: […]
